Laboratory results from paper PMC5034043 (The Journal of Biological Chemistry, 2016).
Where two headings read alike, the source gives them in different places.

Tested on: T1, synaptosomal proteome
T1 construct: from tissue; host or cells: brain synaptosomes of male C57/B6 mice
Format: binding, mouse
Protocol: Synaptosomes were resuspended to 1 mg of protein/ml in HEPES buffer medium (in mM: 140 NaCl, 5 KCl, 5 NaHCO3, 1.2 NaH2PO4, 1 MgCl2, 10 glucose, and 10 HEPES (pH 7.4)). […] The samples were allowed to equilibrate for 5 min before being transferred to a parafilm-sealed 1-mm path length quartz cuvette. The sample was then irradiated for 20 min at a peak bandwidth of 350 nm (Rayonet RPR-3500 lamp) ∼6 cm from the light source. Non-irradiated samples were left in the dark at ambient temperature (22–25 °C) for 20 min. All remaining procedures were conducted with restricted light exposure.
To 750 μg of photolabeled or control synaptosome samples, 40 μl of 10% SDS and 2 μl of 5 mM DTT in water were added. Samples were then vortexed, heated for 10 min at 65 °C, and then briefly cooled. Final concentrations of 150 μM azide-biotin (Click Chemistry Tools), 2 mM tris(3-hydroxypropyltriazolylmethyl)amine (Sigma), 1 mM ascorbic acid (Sigma), and 1 mM CuSO4·5H2O (Sigma) were added to each sample and vortexed vigorously. The samples were left in the dark at ambient temperature (22–25 °C) for 1 h with mild agitation. Directly to each sample 4× volume chilled methanol, 1.5× chilled chloroform, and 3× chilled double distilled H2O were added. Samples were vortexed vigorously and centrifuged at 1,400 × g for 30 min at 4 °C. Both liquid layers were carefully removed, and the protein pellet was washed with 2 ml of 1:1 (v/v) chilled methanol/chloroform. Samples were centrifuged at 3,500 × g for 30 min at 4 °C. Protein pellets were briefly air-dried before further processing.
750 μg of biotin-conjugated protein sample was resuspended in 500 μl of 25 mM NH4HCO3 and 6 M urea in water. Next, 150 μl of 5% Triton X-100 in water, 50 μl of 10% SDS in water, and 1.5 μl of 0.5 M DTT were added. The samples were heated for 15 min at 65 °C. After briefly cooling, 14 μl of 0.5 M iodoacetamide in water was added, and the sample was left in the dark for 45 min. […] The supernatant was diluted to 4 ml with PBS, and 2 ml of PBS containing 100 μl of 50% streptavidin-agarose resin (Thermo Scientific) was added. Biotinylated proteins within the sample were captured over resin overnight at 4 °C with mild agitation. The resin was first washed with 6 ml of 1% SDS in PBS, and then 7 ml of 0.1 M urea in PBS followed by 10 ml of PBS. The resin underwent a final wash with 0.9 ml of 50 mM Tris-HCl and 1 mM CaCl2 in water (pH 8.0) and then resuspended in 200 μl of 50 mM Tris-HCl, 1 mM CaCl2 in water (pH 8.0), and 2 μg of porcine sequencing grade trypsin (Promega). Samples were digested overnight at 37 °C. Samples were then centrifuged at 2,000 × g for 4 min, and digest supernatant was decanted. Beads were washed in 100 μl of PBS centrifuged at 5,200 × g for 5 min, and the wash was combined with the digest supernatant. To the combined sample, trifluoroacetic acid (TFA) was added to 0.4% (v/v) or until pH <2. The sample was desalted with Oasis C18 10-mg columns (Waters) as described previously ([66]). The eluted sample was dried by speed vac and resuspended in 0.1 M HEPES buffer (pH 8.5). […] Appropriate corresponding TMTsixplex^TM-labeled samples were pooled and dried by speed vac. The combined samples were resuspended in 0.5% acetic acid in water and pH-corrected with acetic acid until pH was <2. 40 μg of protein was desalted with C18 stage tips prepared in-house and dried by speed vac.
Samples were resuspended in 10 mM KH2PO4 (pH 2.6), 30% acetonitrile (v/v) in water, and fractionated by off-line strong cation exchange chromatography prior to mass spectrometry (MS) analysis similar to as reported previously ([66]). The full synaptosome proteome control was prepared similarly without TMTsixplex^TM labeling.
All TMT samples were analyzed with three-stage mass spectrometry (MS3) TMTsixplex^TM quantification workflow as described previously ([34]).

[1] = protein A2AGI3 Neuroligin-3 (Nlgn3)
[2] = protein A2AWI7 Endophilin-B2 (Sh3glb2)
[3] = protein D3Z5T2 Armadillo repeat-containing protein 10 (Armc10)
[4] = protein E9Q3V6 Septin-2 (Sept2)
[5] = protein F7C846 Metaxin-1 (Mtx1)
[6] = protein F8WGD9 1-acyl-sn-glycerol-3-phosphate acyltransferase epsilon (Agpat5)
[7] = protein G3UYZ1 Immunoglobulin superfamily member 8 (Igsf8)
[8] = protein G5E829 Plasma membrane calcium-transporting ATPase 1 (Atp2b1)
[9] = protein H3BL44 Calcium-transporting ATPase (Atp2c1)
[10] = protein O09111 NADH dehydrogenase [ubiquinone] 1 beta subcomplex subunit 11, mitochondrial (Ndufb11)
[11] = protein O35114 Lysosome membrane protein 2 (Scarb2)
[12] = protein O35526 Syntaxin-1A (Stx1a)
[13] = protein O35874 Neutral amino acid transporter A (Slc1a4)
[14] = protein O35963 Ras-related protein Rab-33B (Rab33b)
[15] = protein O55022 Membrane-associated progesterone receptor component 1 (Pgrmc1)

`CC(C)c1cccc(C(C)C)c1O` [propofol, 2,6-diisopropylphenol, reference compound] was tested, and the “% propofol protection” value (D3Z2J6 Tmx2) was 70%, the “% propofol protection” value (E9PUL5 Prrt2) was 72% and the “Log2( Mean 'UV/ UV+propofol')” value (E9PUL5 Prrt2) was 1.75. For the same compound, the “% propofol protection” value (P07724 Alb) was 75%, the “Log2( Mean 'UV/ UV+propofol')” value (P07724 Alb) was 1.84 and the “% propofol protection” value (P12787 Cox5a) was 76%. For the same compound, the “% propofol protection” value (P16332 Mut) was 72%, the “Log2( Mean 'UV/ UV+propofol')” value (P16332 Mut) was 1.79 and the “Log2( Mean 'UV/ UV+propofol')” value (P23242 Gja1) was 1.15. The “Log2( Mean 'UV/ UV+propofol')” value (P35279 Rab6a) was 1.22, the “% propofol protection” value (P51150 Rab7a) was 73% and the “Log2( Mean 'UV/ UV+propofol')” value (P51150 Rab7a) was 1.72. The “% propofol protection” value (P54071 Idh2) was 71%, the “Log2( Mean 'UV/ UV+propofol')” value (P54071 Idh2) was 1.75 and the “Log2( Mean 'UV/ UV+propofol')” value (P61620 Sec61a1) was 1.22. For the same compound, the “% propofol protection” value (P62812 Gabra1) was 70%, the “Log2( Mean 'UV/ UV+propofol')” value (P63037 Dnaja1) was 1.24 and the “% propofol protection” value (P63044 Vamp2) was 71%. For the same compound, the “% propofol protection” value (P63213 Gng2) was 75%, the “Log2( Mean 'UV/ UV+propofol')” value (P63213 Gng2) was 1.98 and the “% propofol protection” value (P97445 Cacna1a) was 70%. The “% propofol protection” value (Q5SW88 Rab1) was 73%, the “Log2( Mean 'UV/ UV+propofol')” value (Q5SW88 Rab1) was 1.71 and the “% propofol protection” value (Q8BLF1 Nceh1) was 71%. For the same compound, the “Log2( Mean 'UV/ UV+propofol')” value (Q8BLF1 Nceh1) was 1.72, the “% propofol protection” value (Q8BXV2 Bri3bp) was 75% and the “Log2( Mean 'UV/ UV+propofol')” value (Q8BXV2 Bri3bp) was 1.93. The “% propofol protection” value (Q8C3X2 Ccdc90b) was 75%, the “Log2( Mean 'UV/ UV+propofol')” value (Q8C3X2 Ccdc90b) was 1.94 and the “% propofol protection” value (Q8K1Z0 Coq9) was 73%. The “Log2( Mean 'UV/ UV+propofol')” value (Q8K1Z0 Coq9) was 1.79, the “% propofol protection” value (Q8K221 Arfip2) was 70% and the “% propofol protection” value (Q8R5J9 Arl6ip5) was 75%. For the same compound, the “Log2( Mean 'UV/ UV+propofol')” value (Q8R5J9 Arl6ip5) was 1.93, the “% propofol protection” value (Q9CQQ7 Atp5f1) was 70% and the “% propofol protection” value (Q9CQS4 Slc25a46) was 76%. For the same compound, the “Log2( Mean 'UV/ UV+propofol')” value (Q9CXJ4 Abcb8) was 1.18, the “% propofol protection” value (Q9CZS1 Aldh1b1) was 75% and the “Log2( Mean 'UV/ UV+propofol')” value (Q9CZS1 Aldh1b1) was 1.96. The “% propofol protection” value (Q9D2P8 Mobp) was 76%, the “Log2( Mean 'UV/ UV+propofol')” value (Q9D5T0 Atad1) was 1.22 and the “% propofol protection” value (Q9D6D0 Slc25a27) was 75%. For the same compound, the “% propofol protection” value (Q9D6K8 Fundc2) was 71%, the “Log2( Mean 'UV/ UV+propofol')” value (Q9D6K8 Fundc2) was 1.61 and the “% propofol protection” value (Q9DAS9 Gng12) was 76%. For the same compound, the “% propofol protection” value (Q9DC70 Ndufs7) was 70%, the “Log2( Mean 'UV/ UV+propofol')” value (Q9EP69 Sacm1l) was 1.23 and the “% propofol protection” value (Q9WV54 Asah1) was 72%. The “Log2( Mean 'UV/ UV+propofol')” value (Q9WV54 Asah1) was 1.72, the “Log2( Mean 'UV/ UV+propofol')” value (Q9Z2I0 Letm1) was 1.22 and the “% propofol protection” value (Q99J08 Sec14l2) was 72%. The “Log2( Mean 'UV/ UV+propofol')” value (Q99J08 Sec14l2) was 1.67, the “Log2( Mean 'UV/ UV+propofol')” value (Q99JY8 Ppap2b) was 1.22 and the “% propofol protection” value (Q00915 Rbp1) was 75%. The “Log2( Mean 'UV/ UV+propofol')” value (Q00915 Rbp1) was 1.96, the “% propofol protection” value (Q64133 Maoa) was 73% and the “Log2( Mean 'UV/ UV+propofol')” value (Q64133 Maoa) was 1.78. For the same compound, the “% propofol protection” value [1] was 58%, the “Log2( Mean 'UV/ UV+propofol')” value [1] was 1.22 and the “% propofol protection” value [2] was 56%. The “Log2( Mean 'UV/ UV+propofol')” value [2] was 1.04, the “% propofol protection” value [3] was 55% and the “Log2( Mean 'UV/ UV+propofol')” value [3] was 1.05. For the same compound, the “% propofol protection” value [4] was 54%, the “Log2( Mean 'UV/ UV+propofol')” value [4] was 1.08 and the “% propofol protection” value [5] was 55%. The “Log2( Mean 'UV/ UV+propofol')” value [5] was 1.11, the “% propofol protection” value [6] was 57% and the “Log2( Mean 'UV/ UV+propofol')” value [6] was 1.12. For the same compound, the “% propofol protection” value [7] was 52%, the “Log2( Mean 'UV/ UV+propofol')” value [7] was 0.97 and the “% propofol protection” value [8] was 55%. The “Log2( Mean 'UV/ UV+propofol')” value [8] was 1.01, the “% propofol protection” value [9] was 51% and the “Log2( Mean 'UV/ UV+propofol')” value [9] was 0.88. For the same compound, the “% propofol protection” value [10] was 56%, the “Log2( Mean 'UV/ UV+propofol')” value [10] was 1.15 and the “% propofol protection” value [11] was 53%. The “Log2( Mean 'UV/ UV+propofol')” value [11] was 1.00, the “% propofol protection” value [12] was 57% and the “Log2( Mean 'UV/ UV+propofol')” value [12] was 1.15. The “% propofol protection” value [13] was 53%, the “Log2( Mean 'UV/ UV+propofol')” value [13] was 1.03 and the “% propofol protection” value [14] was 55%. For the same compound, the “Log2( Mean 'UV/ UV+propofol')” value [14] was 1.06, the “% propofol protection” value [15] was 51% and the “Log2( Mean 'UV/ UV+propofol')” value [15] was 1.00.
